According to patent publication US6096930A, “Herbicidal cyclohexane-1,3-dione derivatives and their preparation process” (Korea Research Institute of Chemical Technology, priority 1994, dated 2000):
Read-outs that look alike come from different tables or passages of the source.

Experiments:
Format in all cases: in vivo
[1] = system: ABUTH; test: Herbicidal activity, upland test, pre-emergence
Experimental: (§1) The sterilized sandy loam soil is filled in test pot having a surface area of 348 cm^2 for upland test conditions or 115 cm^2 for paddy test species were planted in furrows.
(§2) For the pre-emergent tests, were sprayed on the soil one day after planting test compound in a mixture of acetone and 7 ml of the water containing up to 0.1% Tween 20.
(§3) The concentration of the test compound in solution was varied to give a range of application rates, generally 4.0 kg/ha and submultiples thereof. The pots were placed in a greenhouse and watered regularly at the soil surface for 21 days and herbicidal effects were visually rated by a percent control.
(§4) The herbicidal activity data were taken visually by percent control, wherein 0 signifies no herbicidal effect and 100 signifies complete kill.

[2] = system: DIGSA; test: Herbicidal activity, upland test, pre-emergence
Experimental: as §1, §2, §3, §4

[3] = system: ECHOR; test: Herbicidal activity, upland test, pre-emergence
Experimental: as §1, §2, §3, §4

[4] = system: GOSHI; test: Herbicidal activity, upland test, pre-emergence
Experimental: as §1, §2, §3, §4

[5] = system: SOLNI; test: Herbicidal activity, upland test, pre-emergence
Experimental: as §1, §2, §3, §4

[6] = system: ABUTH; test: Herbicidal activity, upland test, post-emergence
Text: as §1
(§5) The pots for the post-emergent tests were placed in a greenhouse and watered for 9~14 days, then the foliage of test plants was sprayed with a solution of the test compound in a mixture of acetone and water containing a small amount of Tween 20.
(§6) After spraying the plants were kept for one day, then watered regularly for 14 to 21 days, and herbicidal activity data were recorded.
as §4

[7] = system: AESIN; test: Herbicidal activity, upland test, post-emergence
Text: as §1, §5, §6, §4

[8] = system: BROJA; test: Herbicidal activity, upland test, post-emergence
Text: as §1, §5, §6, §4

[9] = system: DIGSA; test: Herbicidal activity, upland test, post-emergence
Text: as §1, §5, §6, §4

[10] = system: ECHOR; test: Herbicidal activity, upland test, post-emergence
Text: as §1, §5, §6, §4

[11] = system: GLXMX; test: Herbicidal activity, upland test, post-emergence
Text: as §1, §5, §6, §4

[12] = system: GOSHI; test: Herbicidal activity, upland test, post-emergence
Text: as §1, §5, §6, §4

[13] = system: ORYSA; test: Herbicidal activity, upland test, post-emergence
Text: as §1, §5, §6, §4

[14] = system: PANDI; test: Herbicidal activity, upland test, post-emergence
Text: as §1, §5, §6, §4

[15] = system: SOLNI; test: Herbicidal activity, upland test, post-emergence
Text: as §1, §5, §6, §4

[16] = system: SORBI; test: Herbicidal activity, upland test, post-emergence
Text: as §1, §5, §6, §4

[17] = system: TRZAW; test: Herbicidal activity, upland test, post-emergence
Text: as §1, §5, §6, §4

[18] = system: ZEAMX; test: Herbicidal activity, upland test, post-emergence
Text: as §1, §5, §6, §4

[19] = system: ECHOR; test: Herbicidal activity for paddy test
Summary of the method: (§7)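 Pots of 115 cm^2 surface area are filled with sterilized sandy loam soil. Seeds of each paddy species are planted in furrows. Control is then rated by eye on a 0–100 % scale, where 100 means complete kill.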

[20] = system: MOOVA; test: Herbicidal activity for paddy test
Summary of the method: as §7

[21] = system: ORYSA; test: Herbicidal activity for paddy test; conditions: for plant injury at 2 g/ha: 0.002 kg/ha; for plant injury at 8 g/ha: 0.008 kg/ha; for plant injury at 31 g/ha: 0.031 kg/ha; for plant injury at 125 g/ha: 0.125 kg/ha; for plant injury at 500 g/ha: 0.500 kg/ha
Summary of the method: as §7

[22] = system: SAGPY; test: Herbicidal activity for paddy test
Summary of the method: as §7

[23] = system: SCPJU; test: Herbicidal activity for paddy test
Summary of the method: as §7

[24] = 3 Leaf, read-out: Herbicidal activity, ORYSA (3 Leaf)
[25] = seed, read-out: Herbicidal activity, ORYSA (seed)

CCC(=NOC)C1=C(O)CC(c2c(C)c(C)c3c(c2C)CC(C)(C)C3)CC1=O (stereo not drawn) [Compound 1]
Herbicidal activity, ABUTH ([1]; 0.016 kg/ha): 0 % inhibition | Herbicidal activity, ABUTH ([1]; 0.063 kg/ha): 0 % inhibition | Herbicidal activity, ABUTH ([1]; 1.000 kg/ha): 0 % inhibition | Herbicidal activity, ABUTH ([1]; 1.250 kg/ha): 0 % inhibition | Herbicidal activity, DIGSA ([2]; 0.016 kg/ha): 0 % inhibition | Herbicidal activity, DIGSA ([2]; 0.063 kg/ha): 30 % inhibition | Herbicidal activity, DIGSA ([2]; 1.000 kg/ha): 100 % inhibition | Herbicidal activity, DIGSA ([2]; 1.250 kg/ha): 70 % inhibition | Herbicidal activity, ECHOR ([3]; 0.016 kg/ha): 0 % inhibition | Herbicidal activity, ECHOR ([3]; 0.063 kg/ha): 30 % inhibition | Herbicidal activity, ECHOR ([3]; 1.000 kg/ha): 100 % inhibition | Herbicidal activity, ECHOR ([3]; 1.250 kg/ha): 80 % inhibition | Herbicidal activity, GOSHI ([4]; 0.016 kg/ha): 0 % inhibition | Herbicidal activity, GOSHI ([4]; 0.063 kg/ha): 0 % inhibition | Herbicidal activity, GOSHI ([4]; 1.000 kg/ha): 0 % inhibition | Herbicidal activity, GOSHI ([4]; 1.250 kg/ha): 0 % inhibition | Herbicidal activity, SOLNI ([5]; 0.016 kg/ha): 0 % inhibition | Herbicidal activity, SOLNI ([5]; 0.063 kg/ha): 0 % inhibition | Herbicidal activity, SOLNI ([5]; 1.000 kg/ha): 0 % inhibition | Herbicidal activity, SOLNI ([5]; 1.250 kg/ha): 0 % inhibition | Herbicidal activity, ABUTH ([6]; 0.016 kg/ha): 0 % inhibition | Herbicidal activity, ABUTH ([6]; 0.063 kg/ha): 0 % inhibition | Herbicidal activity, ABUTH ([6]; 1.000 kg/ha): 0 % inhibition | Herbicidal activity, ABUTH ([6]; 1.250 kg/ha): 0 % inhibition | Herbicidal activity, AESIN ([7]; 0.016 kg/ha): 0 % inhibition | Herbicidal activity, AESIN ([7]; 0.063 kg/ha): 0 % inhibition | Herbicidal activity, AESIN ([7]; 1.000 kg/ha): 0 % inhibition | Herbicidal activity, AESIN ([7]; 1.250 kg/ha): 0 % inhibition | Herbicidal activity, BROJA ([8]; 0.016 kg/ha): 0 % inhibition | Herbicidal activity, BROJA ([8]; 0.063 kg/ha): 40 % inhibition | Herbicidal activity, BROJA ([8]; 1.000 kg/ha): 100 % inhibition | Herbicidal activity, BROJA ([8]; 1.250 kg/ha): 70 % inhibition | Herbicidal activity, DIGSA ([9]; 0.016 kg/ha): 70 % inhibition | Herbicidal activity, DIGSA ([9]; 0.063 kg/ha): 100 % inhibition | Herbicidal activity, DIGSA ([9]; 1.000 kg/ha): 100 % inhibition | Herbicidal activity, DIGSA ([9]; 1.250 kg/ha): 100 % inhibition | Herbicidal activity, ECHOR ([10]; 0.016 kg/ha): 60 % inhibition | Herbicidal activity, ECHOR ([10]; 0.063 kg/ha): 100 % inhibition | Herbicidal activity, ECHOR ([10]; 1.000 kg/ha): 100 % inhibition | Herbicidal activity, ECHOR ([10]; 1.250 kg/ha): 100 % inhibition | Herbicidal activity, GLXMX ([11]; 0.016 kg/ha): 0 % inhibition | Herbicidal activity, GLXMX ([11]; 0.063 kg/ha): 0 % inhibition | Herbicidal activity, GLXMX ([11]; 1.000 kg/ha): 60 % inhibition | Herbicidal activity, GLXMX ([11]; 1.250 kg/ha): 20 % inhibition | Herbicidal activity, GOSHI ([12]; 0.016 kg/ha): 0 % inhibition | Herbicidal activity, GOSHI ([12]; 0.063 kg/ha): 30 % inhibition | Herbicidal activity, GOSHI ([12]; 1.000 kg/ha): 50 % inhibition | Herbicidal activity, GOSHI ([12]; 1.250 kg/ha): 40 % inhibition | Herbicidal activity, ORYSA ([13]; 0.016 kg/ha): 0 % inhibition | Herbicidal activity, ORYSA ([13]; 0.063 kg/ha): 50 % inhibition | Herbicidal activity, ORYSA ([13]; 1.000 kg/ha): 100 % inhibition | Herbicidal activity, ORYSA ([13]; 1.250 kg/ha): 100 % inhibition | Herbicidal activity, PANDI ([14]; 0.016 kg/ha): 40 % inhibition | Herbicidal activity, PANDI ([14]; 0.063 kg/ha): 100 % inhibition | Herbicidal activity, PANDI ([14]; 1.000 kg/ha): 100 % inhibition | Herbicidal activity, PANDI ([14]; 1.250 kg/ha): 100 % inhibition | Herbicidal activity, SOLNI ([15]; 0.016 kg/ha): 0 % inhibition | Herbicidal activity, SOLNI ([15]; 0.063 kg/ha): 0 % inhibition | Herbicidal activity, SOLNI ([15]; 1.000 kg/ha): 0 % inhibition | Herbicidal activity, SOLNI ([15]; 1.250 kg/ha): 0 % inhibition | Herbicidal activity, SORBI ([16]; 0.016 kg/ha): 0 % inhibition | Herbicidal activity, SORBI ([16]; 0.063 kg/ha): 20 % inhibition | Herbicidal activity, SORBI ([16]; 1.000 kg/ha): 100 % inhibition | Herbicidal activity, SORBI ([16]; 1.250 kg/ha): 60 % inhibition | Herbicidal activity, TRZAW ([17]; 0.016 kg/ha): 30 % inhibition | Herbicidal activity, TRZAW ([17]; 0.063 kg/ha): 40 % inhibition | Herbicidal activity, TRZAW ([17]; 1.000 kg/ha): 100 % inhibition | Herbicidal activity, TRZAW ([17]; 1.250 kg/ha): 60 % inhibition | Herbicidal activity, ZEAMX ([18]; 0.016 kg/ha): 0 % inhibition | Herbicidal activity, ZEAMX ([18]; 0.063 kg/ha): 30 % inhibition | Herbicidal activity, ZEAMX ([18]; 1.000 kg/ha): 100 % inhibition | Herbicidal activity, ZEAMX ([18]; 1.250 kg/ha): 100 % inhibition | pest or weed control at 2 g/ha ([19]; 0.002 kg/ha): 95% | pest or weed control at 8 g/ha ([19]; 0.008 kg/ha): 95% | pest or weed control at 31 g/ha ([19]; 0.031 kg/ha): 100% | pest or weed control at 125 g/ha ([19]; 0.125 kg/ha): 100% | pest or weed control at 500 g/ha ([19]; 0.500 kg/ha): 100% | pest or weed control at 2 g/ha ([20]; 0.002 kg/ha): 0% | pest or weed control at 8 g/ha ([20]; 0.008 kg/ha): 0% | pest or weed control at 31 g/ha ([20]; 0.031 kg/ha): 0% | pest or weed control at 125 g/ha ([20]; 0.125 kg/ha): 0% | pest or weed control at 500 g/ha ([20]; 0.500 kg/ha): 0% | plant injury at 2 g/ha [21, 24]: 0% | plant injury at 8 g/ha [21, 24]: 0% | plant injury at 31 g/ha [21, 24]: 0% | plant injury at 125 g/ha [21, 24]: 90% | plant injury at 500 g/ha [21, 24]: 100% | plant injury at 2 g/ha [21, 25]: 0% | plant injury at 8 g/ha [21, 25]: 70% | plant injury at 31 g/ha [21, 25]: 100% | plant injury at 125 g/ha [21, 25]: 100% | plant injury at 500 g/ha [21, 25]: 100% | pest or weed control at 2 g/ha ([22]; 0.002 kg/ha): 0% | pest or weed control at 8 g/ha ([22]; 0.008 kg/ha): 0% | pest or weed control at 31 g/ha ([22]; 0.031 kg/ha): 0% | pest or weed control at 125 g/ha ([22]; 0.125 kg/ha): 0% | pest or weed control at 500 g/ha ([22]; 0.500 kg/ha): 0% | pest or weed control at 2 g/ha ([23]; 0.002 kg/ha): 0% | pest or weed control at 8 g/ha ([23]; 0.008 kg/ha): 0% | pest or weed control at 31 g/ha ([23]; 0.031 kg/ha): 0% | pest or weed control at 125 g/ha ([23]; 0.125 kg/ha): 0% | pest or weed control at 500 g/ha ([23]; 0.500 kg/ha): 0%
